Assay results published in article PMC7179167 (Molecules, 2020).
Converted amounts (≈) assume the structure as drawn. Read-outs that look alike come from different tables or passages of the source.

Assays:
[1] = test system: normal skin fibroblast cells (BJ-1); experiment: MTT cytotoxicity assay, normal skin fibroblast BJ-1; assay type: cell-based; settings: Homo sapiens, 48 h, read-out: Growth Inhibition (%) BJ-1
[2] = test system: HepG-2 (human liver cancer); experiment: MTT cytotoxicity assay, HepG-2; assay type: cell-based; settings: for inhibition at 100 µg/mL: HepG2, 100 µg/ml, 48 h, read-out: Growth Inhibition (%) HepG-2; for IC50: HepG2, 48 h post-treatment
[3] = test system: MCF-7 (human breast cancer); experiment: MTT cytotoxicity assay, MCF-7; assay type: cell-based; settings: for inhibition at 100 µg/mL: MCF7, 100 µg/ml, 48 h, read-out: Growth Inhibition (%) MCF-7; for IC50: MCF7, 48 h post-treatment
[4] = DPPH free radical scavenging assay; assay type: biochemical; settings: concentration of 20µg/l, mean ± SD of three experiments
Method: Antioxidant activity of the newly synthesized 13a–i, 14a–i, 11a–c and 12a–c were assessed in terms of hydrogen-donating or radical-scavenging ability via the stable free radical 1,1-diphenyl-2-picrylhydrazyl (DPPH) using ascorbic acid as a reference at a concentration of […].
The free radical scavenging activity (RSA) was assessed spectrophotometically at 517 nm via decoloration of the solution of the DPPH (1,1-diphenyl-2-picrylhydrazyl) radical according to Brand-Williams et al. 1995 [32]. DPPH solution was prepared by dissolving of 20 mg of DPPH in one liter of dimethylsulphoxide (DMSO). A freshly prepared DPPH solution was used for the assay. Each of the tested compounds 11a–c, 12a–c, 13a–i, 14a–i and 15a,b were dissolved in DMSO (1mg/mL). A volume of […] of a DMSO stock solution of the test compounds was added to 2 mL of freshly prepared DPPH in DMSO solution. The mixtures were shaken in a vortex (2500 rpm) for 1 min and then left to stand for 15, 30, 45 and 60 min in the dark room. The absorbance was measured at 517 nm against blank using UV visible spectrophotometer 2401 PC (Shimadzu, Kyoto, Japan). Lower absorbance of the reaction mixture indicated higher free radical scavenging activity was analyzed from the graph plots of the inhibition percentage against the compound concentration. The experiment was carried out in triplicate and averaged. The scavenging activity was calculated according to the following formula:Scavenging ability (%) = (A517 of control - A517of sample / A 517 of control) ×100(1)

[5] = test system: HCT-116 (human colon cancer); experiment: MTT cytotoxicity assay, HCT-116; assay type: cell-based; settings: for inhibition at 100 µg/mL / IC50: Homo sapiens; for inhibition at 100 µg/mL: HCT-116, 100 µg/ml, 48 h, read-out: Growth Inhibition (%) HCT-116; for IC50: HCT-116, 48 h
[6] = 15 min, read-out: Scavenging Activity (%) on DPPH radicals at 15 min
[7] = 30 min, read-out: Scavenging Activity (%) on DPPH radicals at 30 min
[8] = 45 min, read-out: Scavenging Activity (%) on DPPH radicals at 45 min
[9] = 60 min, read-out: Scavenging Activity (%) on DPPH radicals at 60 min

melting point [°C] | Compound | inhibition at 100 µg/mL [1] [%] | inhibition at 100 µg/mL [2] [%] | IC50 [2] [µg/mL] | inhibition at 100 µg/mL [3] [%] | IC50 [3] [µg/mL] | inhibition [4, 6] [%] | inhibition [4, 7] [%] | inhibition [4, 8] [%] | inhibition [4, 9] [%] | inhibition at 100 µg/mL [5] [%] | IC50 ([5]; 48 h post-treatment) [µg/mL] | IC50 HCT-116 ([5]; 48 h post-treatment) [µg/mL]
132 to 134 | O=C1Nc2ccccc2C12CC(c1cn(S(=O)(=O)c3ccc(Br)cc3)c3ccccc13)=NN2c1ccccc1 (stereo not drawn) [Compound 14g, 5’-(N-(4-Bromo-benzenesulfonyl)-1H-indol-3-yl)-2’-phenyl-2’,4’-dihydrospiro(indoline-3,3’-pyrazol)-2-one] | 16 |  |  | 90.6 | 37.4 (≈ 62.6 µM) | 8.39 ± 1.14 | 11.9 ± 1.23 | 14.1 ± 2.01 | 26.6 ± 2.13 | 92.1 | 38 (≈ 63.6 µM) | 
124 to 126 | O=C1Nc2ccccc2C12CC(c1c[nH]c3ccccc13)=NN2c1ccccc1 (stereo not drawn) [Compound 14a, 5’-(1H-Indol-3-yl)-2’-phenyl-2’,4’-dihydrospiro(indoline-3,3’-pyrazol)-2-one] | 14.2 |  |  | 90.4 | 32.3 (≈ 85.4 µM) | 41.1 ± 2.05 | 51.5 ± 1.91 | 54 ± 2.06 | 59.2 ± 2.14 | 91.2 | 36.2 (≈ 95.7 µM) | 

The next lines start with the molecule.

Compound | melting point [°C] | inhibition at 100 µg/mL [1] [%] | inhibition at 100 µg/mL [2] [%] | IC50 [2] [µg/mL] | inhibition at 100 µg/mL [3] [%] | IC50 [3] [µg/mL] | inhibition [4, 6] [%] | inhibition [4, 7] [%] | inhibition [4, 8] [%] | inhibition [4, 9] [%] | inhibition at 100 µg/mL [5] [%] | IC50 ([5]; 48 h post-treatment) [µg/mL] | IC50 HCT-116 ([5]; 48 h post-treatment) [µg/mL]
O=C(c1ccccc1Cl)n1cc(C2=NNC3(C2)C(=O)Nc2ccccc23)c2ccccc21 (stereo not drawn) [Compound 13e, 5’-(N-(2-Chloro-benzoyl)-1H-indol-3-yl)-2’,4’-dihydrospiro(indoline-3,3’-pyrazol)-2-one] | 219 to 221 | 10.3 | 79.8 | 67.1 (≈ 152 µM) | 96.4 | 31.9 (≈ 72.4 µM) | 9.1 ± 1.38 | 26.1 ± 1.26 | 36.7 ± 1.62 | 48.1 ± 1.82 | 90.4 | 35.4 (≈ 80.3 µM) | 
COc1cccc2c1C(=O)c1c(O)c3c(c(O)c1C2=O)C[C@@](O)(C(=O)CO)C[C@@H]3O[C@H]1C[C@H](N)[C@H](O)[C@H](C)O1 [Doxorubicin, doxorubicin, reference compound] |  | 0 | 100 | 21.6 (≈ 39.7 µM) | 96.8 | 37.6 (≈ 69.2 µM) |  |  |  |  | 100 | 21.6 (≈ 39.7 µM) | 26.1 (≈ 48 µM)
O=C1Nc2ccccc2C12CC(c1cn(S(=O)(=O)c3ccccc3[N+](=O)[O-])c3ccccc13)=NN2 (stereo not drawn) [Compound 13i, 5’-(N-(2-Nitro-benzensulfonyl)-1H-indol-3-yl)-2’,4’-dihydrospiro (indoline-3,3’-pyrazol)-2-one] | 210 to 212 | 69.4 | 96.8 |  | 97.8 |  |  |  |  |  | 97.7 |  | 
O=C(c1ccc(Cl)cc1)n1cc(C2=NNC3(C2)C(=O)Nc2ccccc23)c2ccccc21 (stereo not drawn) [Compound 13f, 5’-(N-(4-Chloro-benzoyl)-1H-indol-3-yl)-2’,4’-dihydrospiro(indoline-3,3’-pyrazol)-2-one] | 202 to 204 | 16.4 | 72.8 | 83.6 (≈ 190 µM) | 79.7 | 32.1 (≈ 72.8 µM) | 17.9 ± 1.62 | 28.3 ± 1.61 | 34.3 ± 1.27 | 40.7 ± 1.54 | 86.5 | 28.4 (≈ 64.4 µM) | 
